53 compounds from PubChem BioAssay AID1996 can be followed below.

In brackets after ≈: the same amount, converted by molar mass. A value given as a limit tells only on which side of the number the result lay.

The conditions of this data set: buffer; pH 7.4; 200.0 µM.
Usually solubility (kinetic) stands for the concentration staying in solution when a stock, usually in DMSO, is diluted into the medium. For `CN1CCN(C(=O)C2CCN(S(=O)(=O)c3ccc(F)cc3)CC2)CC1`, the solubility (kinetic) was 38.5 µg/mL (≈ 104 µM).
`CCCC(=O)Nc1ccc(-c2csc(-c3cccnc3)n2)cc1` came in with a kinetic solubility of 0.7 µg/mL (≈ 2.16 µM).
`COc1cc(CCC(=O)Nc2ncc(C)s2)cc(OC)c1OC`: the kinetic solubility came to 18.8 µg/mL (≈ 55.9 µM).
The compound `Cc1ccccc1N=C(NO)c1cccnc1` gave a kinetic solubility above 34.1 µg/mL.
The same measure for `O=S(=O)(c1ccc(Cl)nc1)N1CCCCC1`: above 39.1 µg/mL; for `CC(=O)N1CC(=O)Nc2ccc(Cl)cc2C1c1ccccc1` (stereo not drawn): above 47.2 µg/mL.
For `O=C(Nc1cccc(S(=O)(=O)N2CCCC2)c1)c1cccnc1` the value was 37.7 µg/mL (≈ 114 µM); for `COc1ccc(Br)cc1CNCCc1ccc2c(c1)OCO2`, 52.3 µg/mL (≈ 144 µM); for `CN1CCC(NC(=O)NC2CCCCC2)CC1`, above 35.9 µg/mL.
Turning to `O=C(NCCN1CCOCC1)c1ccc(Cl)c(Cl)c1`, the kinetic solubility turned out to be 43.5 µg/mL (≈ 143 µM).
Take `CC(OC(=O)CCc1nc2ccccc2[nH]c1=O)c1ccccc1` (stereo not drawn): the solubility (kinetic) was 11.9 µg/mL (≈ 36.9 µM).
For `CCOCCCNC(=O)c1c[nH]c2c(CC)cccc2c1=O` the value was above 45.4 µg/mL; for `O=C(CNc1ccccc1C(=O)O)c1ccccc1`, 36.3 µg/mL (≈ 142 µM).
The same measure for `CCOc1ccc2nc(SCC3CC3(Cl)Cl)[nH]c2c1` (stereo not drawn): 29.4 µg/mL (≈ 92.7 µM); for `CC(=O)Nc1ccc(S(=O)(=O)NCc2ccc(C)n2C)cc1`: above 48.2 µg/mL.
`CNC(=O)c1ccc(NC(=O)CCc2c(C)noc2C)cc1` returned a kinetic solubility above 45.2 µg/mL.
The same measure for `O=C(O)C1CC(=O)N(CCc2ccc(F)cc2)C1` (stereo not drawn): above 37.7 µg/mL.
Compound `CCOC(=O)c1csc(COc2ccccc2Cl)n1` displayed a kinetic solubility of 2.9 µg/mL (≈ 9.74 µM).
Take `Cc1ccc(C)c(N2N=C(C(=O)O)CCC2=O)c1`: the kinetic solubility was above 36.9 µg/mL.
`C=CCNC(=O)/C(C#N)=C/c1ccc(C)o1` returned a kinetic solubility above 32.4 µg/mL.
For `Cc1cc(C(=O)NCC(c2ccco2)N(C)C)ccc1[N+](=O)[O-]` (stereo not drawn) the value was 39.7 µg/mL (≈ 125 µM); for `O=C(Nc1ccc(Cl)cc1)N1CCCC(Cn2cccc2)C1` (stereo not drawn), above 47.7 µg/mL.
`O=S(=O)(Cc1ccccc1Cl)NCCc1ccc(F)cc1` had a solubility (kinetic) above 49.2 µg/mL.
`COc1ccc(N2CCN(Cc3nc4ccccc4[nH]3)CC2)cc1` returned a kinetic solubility above 48.4 µg/mL.
`CC1CCc2ccccc2N1C(N)=Nc1ccccc1.Cl` (stereo not drawn) gave a kinetic solubility above 45.3 µg/mL.
The same measure for `Cn1c(SCC(=O)Nc2cccnc2Cl)nc2ccccc21`: 37.9 µg/mL (≈ 114 µM); for `CC(C)N1CCN(Cc2cnc(-c3ccccc3)s2)CC1CCO` (stereo not drawn): above 51.8 µg/mL.
For `CCCCOc1cc(C(=O)NCCN(CC)CC)c2ccccc2n1.Cl` the value was above 57 µg/mL.
On to `Cc1cc(NC(=O)c2ccccc2)no1`, for which the kinetic solubility was 28.8 µg/mL (≈ 142 µM).
The same measure for `CCN(CC)c1ccc(/C=C2\C(=O)NC(=S)N(c3ccc(OC)cc3OC)C2=O)o1`: 56 µg/mL (≈ 130 µM); for `O=C(CS(=O)(=O)c1ccccc1Cl)N1CCOCC1`: 43.8 µg/mL (≈ 144 µM); for `OC1/C(=C/c2ccccc2F)N2CCC1CC2` (stereo not drawn): above 35 µg/mL.
For `CC(NC(=O)CN1CCN(Cc2cccc(F)c2)CC1)c1ccccc1` (stereo not drawn) the value was above 53.3 µg/mL; for `O=C(NC1CC1)C1CCCN(C(=O)NC2CCCCC2)C1` (stereo not drawn), above 44 µg/mL.
Take `O=C(CN1CCCC1)Nc1ccccc1Sc1ccc(Cl)cc1`: the solubility (kinetic) was determined as 8.6 µg/mL (≈ 24.8 µM).
In turn, `Cc1cccc(NC(=O)Nc2cnccn2)c1C` yielded a kinetic solubility of 1.9 µg/mL (≈ 7.84 µM).
`CN(C(=O)CSc1nc2ccccc2c(=O)n1-c1ccc(F)cc1F)C1CCS(=O)(=O)C1` (stereo not drawn) registered a kinetic solubility above 71.9 µg/mL.
Take `O=C(NC1CCCCC1)c1ccc(-c2cccc([N+](=O)[O-])c2)o1`: the solubility (kinetic) turned out to be 2.8 µg/mL (≈ 8.91 µM).
In turn, `Nc1cc(N)nc(SCC(=O)NCCC2=CCCCC2)n1` displayed a kinetic solubility above 46.1 µg/mL.
The compound `Cc1ccc(F)cc1NS(=O)(=O)c1ccc(Cl)s1` returned a solubility (kinetic) above 45.9 µg/mL.
In turn, `CN1C(=S)SC2CS(=O)(=O)CC21` (stereo not drawn) displayed a solubility (kinetic) above 33.5 µg/mL.
Regarding `C/C(N)=C(/C#N)C(=O)COC(=O)c1ccc(OCC2CCCO2)cc1` (stereo not drawn), the kinetic solubility is 51.5 µg/mL (≈ 150 µM).
For the compound `Cc1ccc(S(=O)(=O)N2CCOCC2)cc1NCC(=O)Nc1ccc(OC(F)(F)F)cc1`, the kinetic solubility was 3 µg/mL (≈ 6.34 µM).
In turn, `Cn1cnnc1SCC(=O)Nc1ccc(N2CCOCC2)cc1` displayed a kinetic solubility above 50 µg/mL.
The same measure for `COc1cc(C)nc(NC(=S)N(C)C(=O)c2ccccc2)n1`: 0.5 µg/mL (≈ 1.58 µM); for `O=C(Nc1cccc2ncccc12)c1ccco1`: 30.5 µg/mL (≈ 128 µM).
For `COc1ccc(NC(=O)C2CCN(c3cnccn3)CC2)cc1OC` the value was 24.7 µg/mL (≈ 72.1 µM).
For `CCc1ccc(N/C(=N/c2nc(C)cc(C)n2)NC(C)=O)cc1` the value was 9.2 µg/mL (≈ 29.5 µM); for `COC(=O)[C@H](CC(C)C)NC(=O)Nc1ccccc1F`, above 42.3 µg/mL; for `CC(C)CC1NC(=O)N(CC(=O)Nc2cc([N+](=O)[O-])ccc2F)C1=O` (stereo not drawn), above 52.8 µg/mL.
On to `CC(=O)c1c(C)[nH]c(C(=O)OCCOc2ccccc2)c1C`, for which the solubility (kinetic) came out at 1.3 µg/mL (≈ 4.31 µM).
For `COc1ccc2c(c1)c(C(=O)C(C)N1CCCCC1)c(C)n2C` (stereo not drawn) the value was below 0.3 µg/mL; for `COc1ccc(C(=O)Nc2ccccc2C(=O)N2CCOCC2)cc1OC`, 46.7 µg/mL (≈ 126 µM).
